No end group written: not given here.
Tests used:
[1] = system: NSC-34 motor-neuron-like cells; experiment: WST-1 assay (dysmetabolism) in NSC-34 cells; format: cell-based, Mouse; details: for dose dependence of abrogation of GR15-induced dysmetabolism / dose dependence of abrogation of PR15-induced dysmetabolism: dose range of the example
Description: WST-1 Assay: The WST-1 assay is a colorimetric assay that measures cell metabolism. Cells with a healthy metabolism contain mitochondrial dehydrogenase enzymes that remove hydrogen atoms from certain molecules, resulting in a release of energy that the cell can use to perform critical reactions. In the WST-1 assay, a water soluble tetrazolium salt substrate (known as WST-1) is applied, which readily enters cells and their mitochondria upon application. If cells are viable, their mitochondrial dehydrogenase enzymes will catalyze the reaction to convert this WST-1 substrate to a colored product called Formazan. The production of this colored Formazan product by viable cells can be quantified using a spectrophotometer (plate reader). Higher absorbance readings correspond to greater metabolic activity/cell viability.
NSC-34 Cell Culture: NSC-34 cells (Cedarlane Laboratories, Burlington, ON, CA) were cultured in a complete medium consisting of High Glucose Dulbecco's Modified Eagle Medium (Millipore-Sigma, Burlington, MA, USA) supplemented with 10% US-origin fetal bovine serum (Thermo-Fisher Scientific, Cambridge, MA, USA), 1% 200 mM L-Glutamine solution (Thermo-Fisher Scientific, Cambridge, MA, USA), and 1% 10,000 U/mL Penicillin-Streptomycin solution (Thermo-Fisher Scientific, Cambridge, MA, USA). Prior to preparation of NSC-34 complete medium, L-Glutamine and Penicillin-Streptomycin solutions were aliquoted and stored at −20° C., and DMEM/High Glucose was stored at 4°. […] Prepared complete medium, DPBS, and Trypsin were always heated in a 37° C. water bath before use, and stored at 4° C. between uses. Cell counts for plating were performed using a Hausser Scientific cell counting chamber (Thermo-Fisher Scientific, Cambridge, MA, USA).
Proteins were reconstituted in sterile DMSO (Millipore-Sigma, Burlington, MA, USA) to stock concentrations of 10 mM, and stored at 4° C.
After reconstitution using the solvents specified in Table _, stocks were aliquoted to 15-20 μL and immediately stored at −20° C.
One row on the top and bottom of the plate, and two columns on either side of the plate, were left without cells and contained culture medium only to minimize experimental well volume evaporation. After plating, cells were incubated for 24 h at 37° C., 5% CO2 prior to DRP and/or PRMT inhibitor addition. At time of DRP/PRMT inhibitor addition, desired doses of DRP for challenge and inhibitor for treatment were achieved by diluting aliquots of each stock in warm culture medium. During experiments where both PRMT inhibitors and DRPs were used, PRMT inhibitors were always applied to wells first, and followed by DRP application. […] Inhibitor toxicity controls were included as wells treated with the desired doses of drug for the experiment, but no DRP. DRP toxicity controls were included as wells only treated with the doses of DRP used for challenge. […] Additional controls needed for each endpoint are specified in the “WST-1 Assay” and “LDH Assay” sections of these methods.
WST-1 Assay: Cells were plated and prepared using the steps described in the “Plating NSC-34 and Dosing with DRPs and PRMT Inhibitors” section of these methods. Other controls for this experiment included wells containing only cells in culture medium, and culture medium only. At time of testing, culture medium was removed from wells and replaced with a warmed, sterile-filtered solution consisting of DPBS with calcium and magnesium, and 4.5 g/L D-glucose (Millipore-Sigma, Burlington, MA, USA). To wells containing 200 μL DPBS-glucose solution, 20 μL/well WST-1 reagent (Millipore-Sigma, Burlington, MA) was applied and plates were then incubated at 37° C., 5% CO2 for 1 h before plates were read at 450 nm on a SpectraMax M3 Microplate Reader (Molecular Devices, San Jose, CA, USA). Experiments included three replicates per condition.

NSC-34 cells = experiment: LDH assay (cytotoxicity) in NSC-34 cells; format: cell-based; details: for dose dependence of abrogation of GR15-induced cytotoxicity / dose dependence of abrogation of PR15-induced cytotoxicity: dose range of the example
Description: LDH Assay: The LDH assay is a colorimetric assay that measures cell toxicity and death. […] When cells lose membrane integrity, an enzyme found in living cells called lactate dehydrogenase (LDH) is released into the solution surrounding the dying cell. A form of programmed cell death, apoptosis, as well as other forms of cell death also ultimately lead to a cell's membrane being destroyed, resulting in a large release of LDH into the extracellular space. Thus, LDH is an excellent marker not only for necrosis, but for all instances of cell death. In an LDH assay, a sample of the solution surrounding the cell is isolated, and transferred to a plate containing an LDH reaction mixture. This reaction mixture contains a tetrazolium salt intermediate and other reaction constituents that, when exposed to LDH, convert the tetrazolium salt into a colored Formazan product. This Formazan product can be quantified spectrophotometrically. Greater absorbance readings correspond to more cell death.
One row on the top and bottom of the plate, and two columns on either side of the plate, were left without cells and contained culture medium only to minimize experimental well volume evaporation. After plating, cells were incubated for 24 h at 37° C., 5% CO2 prior to DRP and/or PRMT inhibitor addition. At time of DRP/PRMT inhibitor addition, desired doses of DRP for challenge and inhibitor for treatment were achieved by diluting aliquots of each stock in warm culture medium. During experiments where both PRMT inhibitors and DRPs were used, PRMT inhibitors were always applied to wells first, and followed by DRP application. […] Inhibitor toxicity controls were included as wells treated with the desired doses of drug for the experiment, but no DRP. DRP toxicity controls were included as wells only treated with the doses of DRP used for challenge. Once dosed, plates were incubated for 24 h at 37° C., 5% CO2 prior to running the WST-1 or LDH assay endpoints. Additional controls needed for each endpoint are specified in the “WST-1 Assay” and “LDH Assay” sections of these methods.
LDH Assay: Cells were plated and prepared using the steps described in the “Plating NSC-34 and Dosing with DRPs and PRMT Inhibitors” section of these methods. Other controls for this experiment included several sets of wells with only cells in culture medium (one triplicate designated for “untreated,” one triplicate designated for “lysed” positive control), and wells with culture medium only. An additional control added only to the transfer plate at time of testing was 5 μL LDH only. Testing was performed using colorimetric LDH-Cytotoxicity Assay Kit II (Abcam, Cambridge, MA, USA) per manufacturer's instructions. Final read at 450 nm was performed on a SpectraMax M3 Microplate Reader (Molecular Devices, San Jose, CA, USA). Data analysis included calculation of % LDH release using the following equation: […]
Experiments included three replicates per condition. Each experiment was repeated twice (executed three times total).
(§1) The following conditions were plated in triplicate.
Plates were incubated for 24 h at 37° C., 5% CO2. Cells were tested and data were analyzed by LDH assay.
Cells were plated in culture medium in 2 96-well plates at a density of 3.7×10^4 cells per well, and incubated overnight at 37° C., 5% CO2.
as §1
Cells were plated in culture medium in 2 96-well plates at a density of 3.7×10^4 cells per well, and incubated overnight at 37° C., 5% CO2. […]
The following conditions were plated in triplicate. […]

[2] = 3 μM GR15, 24 h, doses 0.2-20 μM

CNCCN(C)Cc1c[nH]nc1-c1ccc(OC2CC(OCCC3CCOCC3)C2)cc1 (centres unmarked) [EPZ020411]
dose with the greatest abrogation of GR15-induced dysmetabolism [1, 2]: 20 µM | abrogation of GR15-induced dysmetabolism ([1]; 3 μM GR15, 24 h, inhibitor doses 2, 10 and 20 μM): partially abrogated | dose dependence of abrogation of GR15-induced dysmetabolism ([1]; 3 μM GR15 challenge, 24 h): dose-dependently abrogated | abrogation of PR15-induced dysmetabolism ([1]; 3 μM PR15, 24 h, inhibitor doses 10 and 20 μM): completely abrogated | dose dependence of abrogation of PR15-induced dysmetabolism ([1]; 3 μM PR15 challenge, 24 h): dose-dependently abrogated | dysmetabolism independently of GR and PR challenge ([1]; no DRP, doses 10 and 20 μM, not attributable to DMSO): did cause significant dysmetabolism | dysmetabolism independently of GR and PR challenge ([1]; no DRP, other doses tested (0.2, 1, 2 μM)): not at other doses tested | abrogation of GR15-induced cytotoxicity (NSC-34 cells; 3 μM GR15, 24 h, all doses but 0.2 μM (1, 2, 10, 20 μM)): partially abrogated | dose dependence of abrogation of GR15-induced cytotoxicity (NSC-34 cells; 3 μM GR15, 24 h): dose-dependently abrogated | dose with the greatest effect on GR15-induced cytotoxicity (NSC-34 cells; [2]): 20 µM | abrogation of PR15-induced cytotoxicity (NSC-34 cells; 3 μM PR15, 24 h, all doses but 0.2 μM (1, 2, 10, 20 μM)): partially abrogated | dose dependence of abrogation of PR15-induced cytotoxicity (NSC-34 cells; 3 μM PR15, 24 h): dose-dependently abrogated | dose with the greatest effect on PR15-induced cytotoxicity (NSC-34 cells; 3 μM PR15, 24 h, doses 0.2-20 μM): 20 µM | cytotoxicity independently of GR and PR challenge (NSC-34 cells; no DRP, doses 10 and 20 μM): did cause significant cytotoxicity

O=C(NC[C@H](O)CN1CCc2ccccc2C1)c1ccnc(NC2CCC2)c1 [GSK591]
dysmetabolism independently of PR15 challenge vs untreated controls ([1]; no DRP, doses 33, 100 and 200 μM): produced dysmetabolism

CCOCC1(COCC)CCC(c2n[nH]cc2CN(C)CCNC)CC1 [GSK3368715]
dose dependence of abrogation of GR15-induced dysmetabolism ([1]; 3 μM GR15 challenge, 24 h): dose-dependently abrogated | abrogation of GR15-induced dysmetabolism ([1]; 3 μM GR15 challenge, 24 h, inhibitor doses 1 and 3 μM): completely abrogated | dose dependence of abrogation of PR15-induced dysmetabolism ([1]; 3 μM PR15 challenge, 24 h): dose-dependently abrogated | abrogation of PR15-induced dysmetabolism ([1]; 3 μM PR15 challenge, 24 h, inhibitor doses 1 and 3 μM): completely abrogated | abrogation of GR15-induced cytotoxicity (NSC-34 cells; 3 μM GR15, 24 h, dose 1 μM): completely abrogated | dose dependence of abrogation of GR15-induced cytotoxicity (NSC-34 cells; 3 μM GR15, 24 h): dose-dependently abrogated | abrogation of PR15-induced cytotoxicity (NSC-34 cells; 3 μM PR15, 24 h, dose 1 μM): completely abrogated | abrogation of PR15-induced cytotoxicity (NSC-34 cells; 3 μM PR15, 24 h, dose 3 μM): nearly completely abrogated | dose dependence of abrogation of PR15-induced cytotoxicity (NSC-34 cells; 3 μM PR15, 24 h): dose-dependently abrogated | cytotoxicity independently of GR15 and PR15 challenge (NSC-34 cells; no DRP, all doses (0.1-10 μM), likely solvent effects): induced low levels of cytotoxicity

CC(C)Oc1ccc(-c2c[nH]cc2CN(C)CCO)cc1 [MS094]
abrogation of GR15-induced dysmetabolism ([1]; 3 μM GR15 challenge, 24 h, over all tested doses of the inhibitor): No doses of negative control MS094 abrogated dysmetabolism | abrogation of PR15-induced dysmetabolism ([1]; 3 μM PR15 challenge, 24 h, over all tested doses of the inhibitor): No doses of negative control MS094 abrogated dysmetabolism | abrogation of GR15-induced cytotoxicity (NSC-34 cells; 3 μM GR15, 24 h, over all tested doses (0.2-60 μM)): No doses of negative control MS094 abrogated cytotoxicity | abrogation of PR15-induced cytotoxicity (NSC-34 cells; 3 μM PR15, 24 h, over all tested doses (0.2-60 μM)): No doses of negative control MS094 abrogated cytotoxicity | cytotoxicity of inhibitor alone vs untreated controls (NSC-34 cells; no DRP, doses 10, 30 and 60 μM, at highest 2 doses likely DMSO-related): produced cytotoxicity

ADMe-GR15: asymmetrically dimethylated GR15, synthesized protein (Eurogentec) (GRGRGRGRGRGRGRGRGRGRGRGRGRGRGR; also: asymmetric arginine dimethylation, extent/places not given here)
dysmetabolism compared with non-methylated GR15 [1]: consistently producing more dysmetabolism than non-methylated GR15 | cytotoxicity compared with non-methylated GR15 (NSC-34 cells): consistently producing more cytotoxicity than non-methylated GR15
